Source: US6696480B2, “Upregulation of type III endothelial cell nitric oxide synthase by agents that disrupt actin cytoskeletal organization” (Brigham and Women's Hospital, Inc., priority 1998, dated 2004)
Where two headings read alike, the source gives them in different places.

Key:
ecNOS mRNA = test: Northern blotting of ecNOS steady-state mRNA in endothelial cells; format: cell-based, human; parameters: ecNOS mRNA levels increased to / ecNOS mRNA levels, % of basal levels / effect on basal ecNOS mRNA levels: unit of the concentration uncertain; settings: for effect on ecNOS expression (mRNA): 24 hours (FIGS. 9, 11), anaphicoline data not shown
Method: (§1) Equal amounts of total RNA (10-20 mg) were separated by 1.2% formaldehyde-agarose gel electrophoresis and transferred overnight onto Hybond nylon membranes. […] All Northern blots were subjected to stringent washing conditions (0.2× SSC/0.1% SDS at 65° C.) prior to autoradiography. RNA loading was determined by rehybridization with human GAPDH probe.

ecNOS protein [1] = test: Overexpression of Rho mutants, immunoblot of ecNOS protein; format: cell-based, bovine; settings: about 24 h after transfection
Method: For transfection studies, bovine rather than human endothelial cells were used because of their higher transfection efficiency by the calcium-phosphate precipitation method (12% vs <4%) (15). Bovine endothelial cells (60-70% confluent) were transfected with 15 mg of the indicated cDNAs: the insertless vector (pcDNA3), pcDNA3-c-myc-wtRhoA (wildtype RhoA), and pcDNA3-c-myc-N 19RhoA (dominant-negative RhoA mutant) (Gebbink, M et al., J Cell Biol, 1997, 137:1603-1613). As an internal control for transfection efficiency, pCMV. b-Gal plasmid (5 mg) was co-transfected. Preliminary results using b-galactosidase staining indicate that cellular transfection efficiency was approximately 10% to 14%. The b-galactosidase activity was determined by a chemiluminescence assay (Dual-Light, Tropix, Bedford, Mass.) using a Berthold L9501 luminometer. Approximately 24 h after transfection, cells were harvested for immunoblot analyses of ecNOS expression. The ecNOS protein levels were then standardized to the corresponding levels of transfected RhoA expression as determined by antisera to the corresponding c-myc tag.

[2] = tested on: cerebral ischemia, left middle cerebral artery (MCA) occlusion; test: Murine model of cerebral vascular ischemia (MCA occlusion); format: in vivo, SV-129 mice; settings: lovastatin, at higher relative concentrations (data not shown)
Excerpt: Ischemia was produced by occluding the left middle cerebral artery (MCA) with a coated 8.0 nylon monofilament under anesthesia as described (Huang, Z et al., J Cereb Blood Flow Metab, 1996, 16:981-987, Huang, Z et al., Science, 1994, 265:1883-1885, Hara, H et al., J Cereb Blood Flow Metab, 1997, 1:515-526). Arterial blood pressure, heart rate, arterial oxygen pressure, and partial pressure of carbon dioxide were monitored as described (Huang, Z et al., J Cereb Blood Flow Metab, 1996, 16:981-987, Huang, Z et al., Science, 1994, 265:1883-1885, Hara, H et al., J Cereb Blood Flow Metab, 1997, 1:515-526). The filaments were withdrawn after 2 hours and after 24 h, mice were either sacrificed or tested for neurological deficits using a well-established, standardized, observer-blinded protocol as described (Huang, Z et al., J Cereb Blood Flow Metab, 1996, 16:981-987, Huang, Z et al., Science, 1994, 265:1883-1885, Hara, H et al., J Cereb Blood Flow Metab, 1997, 1:515-526). The motor deficit score range from 0 (no deficit) to 2 (complete deficit).
Brains were divided into five coronal 2-mm sections using a mouse brain matrix (RBM-200C, Activated Systems, Ann Arbor, Mich., USA). Infarction volume was quantitated with an image analysis system (M4, St. Catharines, Ontario, Canada) on 2% 2,3,5-triphenyltetrazolium chloride stained 2-mm slices. The levels of serum cholesterol, creatinine and transaminases were determined by the Tufts University Veterinary Diagnostic Laboratory (Grafton, Mass.).

ecNOS protein [3] = tested on: ecNOS protein; parameters: ecNOS protein levels: dose or concentration left out as unconfirmed
ecNOS = ecNOS activity, LNMA-inhibitable nitrite production (modified nitrite assay); format: cell-based, human; settings: for nitrite production: L-mevalonate
[4] = tested on: G-protein as and b-actin mRNA; test: Northern blotting of G-protein as and b-actin mRNA (selectivity); format: cell-based, human; settings: normoxic or hypoxic conditions
Method: as §1

RhoA [5] = test: Rho membrane translocation, immunoblot of membrane and cytosol, RhoA; format: cell-based, human; settings: mevastatin
Method: (§2) Autoradiography was performed as described earlier.

RhoB [6] = test: Rho membrane translocation, immunoblot of membrane and cytosol, RhoB; format: cell-based, human; settings: mevastatin
Method: as §2

RhoA [7] = test: Rho GTP-binding activity, immunoprecipitation of [35S]GTP S-labeled RhoA; format: cell-based, human; parameters: RhoA GTP-binding activity: dose or concentration left out as unconfirmed
Method: (§3) The Rho GTP-binding activity was determined by immunoprecipitation of [^35 S]GTP S-labeled Rho. Briefly, membrane and cytosolic proteins were isolated as previously desribed (Liao, J K and Homcy, C J, J Clin Invest, 1993, 92:2168-2172). Proteins (20 mg) from control and treated endothelial cells were incubated for 30 min at 37° C. in a buffer containing [35 S]GTP S (20 nM), GTP (2 mM), MgCl22 (5 mM), EGTA (0.1 mM), NaCl (50 mM), creatinine phosphate (4 mM), phosphocreatinine kinase (5 units), ATP (0.1 mM), dithiothreitol (1 mM), leupeptin ([…]), aprotinin (50 mg/ml), and phenylmethanesulfonyl fluoride (PMSF, 2 mM). The assay was terminated with excess unlabeled GTP S (100 mM).
(§4) Samples were then resuspended in 100 ml of immunopricipitation buffer containing Triton-X (1%), SDS (0.1%), NaCl (150 mM), EDTA (5 mM), Tris-HCl (25 mM, pH 7.4), leupeptin (10 mg/ml), aprotinin (10 mg/ml), and PMSF (2 mM). […]
(§5) The pellets were washed four times in a buffer containing HEPES (50 mM, pH 7.4), NaF (100 mM), sodium phosphate (50 mM), NaCl (100 mM), Triton X-100 (1%), and SDS (0.1%). The final pellet containing the immunoprecipitated [35 S]GTP S-labeled Rho proteins was counted in a liquid scintillation counter (LS 1800, Beckman Instruments, Inc. Fullerton, Calif.). Nonspecific activity was determined in the presence of excess unlabeled GTP S (100 mM).

RhoB [8] = test: Rho GTP-binding activity, immunoprecipitation of [35S]GTP S-labeled RhoB; format: cell-based, human; parameters: RhoB GTP-binding activity: dose or concentration left out as unconfirmed
Method: as §3, §4, §5

[9] = mevastatin alone or in combination with GGPP or FPP

Excerpt for human endothelial cells: Confluent endothelial cells were used for all treatment conditions.

With `COC(=O)Nc1nc2cc(C(=O)c3cccs3)ccc2[nH]1` [nocodazole, Methyl-(5-[2-thienylcarbonyl]-1H-benzimidazol-2-yl)carbamate] the “effect on ecNOS expression (mRNA)” value (ecNOS mRNA) was “do not increase ecNOS expression”.
With “wtRhoA: c-myc-tagged wildtype RhoA overexpressed by transfection” the “reduction of basal ecNOS protein expression” value (ecNOS protein [1]) was 15±4%.
`CC[C@H](C)C(=O)O[C@H]1C[C@@H](C)C=C2C=C[C@H](C)[C@H](CC[C@@H]3C[C@@H](O)CC(=O)O3)[C@H]21` [lovastatin] was tested, and the “reduction of cerebral infarct size” value [2] was “also occurred with lovastatin treatment”, the “effect on ecNOS expression” value (ecNOS protein [3]; not chemically-activated statin (10)) was “no effect” and the “concentration giving similar findings on ecNOS activity, compared to that of simvastatin” value (ecNOS; normoxia and hypoxia) was 10 fold higher. The “increase in ecNOS mRNA levels compared to ox-LDL alone” value (ecNOS mRNA; co-treatment with ox-LDL, lovastatin 10 mmol/L, 24 h) was 3.6 fold, the “ecNOS message increased to” value (ecNOS mRNA; lovastatin (10 μM) alone) was 410±21% and the “ecNOS message increased to” value (ecNOS mRNA; lovastatin (10 μM) under hypoxia) was 350±27%. For the same compound, the “increase in ecNOS mRNA levels compared to untreated cells” value (ecNOS mRNA; lovastatin alone) was 36%, the “increase in ecNOS mRNA level compared to untreated cells” value (ecNOS mRNA; ox-LDL + lovastatin 10 mmol/L, 24 h) was 40±9% and the “change in G-protein as and b-actin mRNA levels” value [4] was “Neither simvastatin nor lovastatin caused any significant change”.
For N19RhoA, the “increase in ecNOS protein levels” value (ecNOS protein [1]) was 150±5%.
`CC[C@H](C)C(=O)O[C@H]1CCC=C2C=C[C@H](C)[C@H](CC[C@@H]3C[C@@H](O)CC(=O)O3)[C@H]21` [mevastatin, Mevastatin] was tested, and the “decrease in membrane localization of RhoA” value (RhoA [5]) was 60±5%, the “increase in RhoA in the cytosol” value (RhoA [5]) was 65±4% and the “decrease in membrane localization of RhoB” value (RhoB [6]) was 78±6%. The “increase in RhoB in the cytosol” value (RhoB [6]) was 87±7%, the “effect on cytosolic RhoA activity” value (RhoA [7]; [9]) was “not affected” and the “effect on cytosolic RhoB activity” value (RhoB [8]; [9]) was “not affected”. For the same compound, the “potency on a molar basis compared to simvastatin” value (ecNOS mRNA; upregulation of ecNOS) was “approximately ten times less potent”, the “potency on a molar basis compared with lovastatin” value (ecNOS mRNA; upregulation of ecNOS) was “equally potent” and the concentrations that produce cytotoxicity (human endothelial cells) was > 50 µM. The “observable adverse effects on cellular morphology / viability” value (human endothelial cells) was “no observable adverse effects”.
For `CC(C)=CCC/C(C)=C/CC/C(C)=C/CC/C(C)=C/COP(=O)(O)OP(=O)(O)O` [GGPP, geranylgeranylpyrophosphate], the “RhoA GTP-binding activity” value (RhoA [7]) was 4.1 ± 0.3 fmol/mg/min, the “effect on basal ecNOS mRNA levels” value (ecNOS mRNA; GGPP (10 (unit uncertain)) alone) was “did not significantly affect” and the “observable adverse effects on cellular morphology / viability” value (human endothelial cells) was “no observable adverse effects”.
With `CC(=O)C(C)=NO` [BDM, 2,3-butanedione 2-monoxime] the “nonspecific cytotoxicity as cause of increased ecNOS expression” value (human endothelial cells) was “does not result from nonspecific cytotoxicity”.
`C=C1[C@@H](C)[C@H]2[C@H](Cc3ccccc3)NC(=O)[C@]23[C@H](OC(C)=O)/C=C/[C@@](C)(O)C(=O)[C@@H](C)C/C=C/[C@H]3[C@@H]1O` [Cytochalasin D] was tested, and the “effect on ecNOS expression (mRNA)” value (ecNOS mRNA) was “upregulation of ecNOS” and the “nonspecific cytotoxicity as cause of increased ecNOS expression” value (human endothelial cells) was “does not result from nonspecific cytotoxicity”.
L-mevalonate was tested, and the “effect of co-treatment on upregulation of ecNOS expression by simvastatin alone” value (ecNOS protein [3]; L-mevalonate (100) + simvastatin (1)) was “completely reversed”, the “effect on basal ecNOS expression” value (ecNOS protein [3]; L-mevalonate alone (100)) was “did not have any appreciable effects” and the ecNOS protein levels (ecNOS protein [3]; L-mevalonic acid (400) co-treatment with simvastatin, hypoxia, 48 h) was 35±2.4%. For the same compound, the ecNOS protein levels (ecNOS protein [3]; L-mevalonic acid alone, cells exposed to hypoxia) was 25±3.9%, the nitrite production (ecNOS) was 8.6±2.9 nmol/500,000 cells/24 h and the nitrite production (ecNOS; 3% O2) was 9.6±1.3 nmol/500,000 cells/24 h. The “observable adverse effects on cellular morphology / viability” value (human endothelial cells) was “no observable adverse effects”.
For C3 transferase, the “increases in ecNOS expression at lower concentrations” value (ecNOS protein [3]) was “correspondingly smaller increases”, the “ecNOS protein levels augmented by” value (ecNOS protein [3]; 48 h) was 250±10% and the nitrite accumulation (ecNOS) was 31±2.1 nmol/500,000 cells/24 hours. The “increase in nitrite accumulation” value (ecNOS; 24 h) was 3 fold and the “observable adverse effects on cellular morphology / viability” value (human endothelial cells) was “no observable adverse effects”.
In the case of anaphicoline, the “effect on ecNOS expression (mRNA)” value (ecNOS mRNA) is reported as “do not increase ecNOS expression”.
For `CC(C)=CCC/C(C)=C/CC/C(C)=C/COP(=O)(O)OP(=O)(O)O` [FPP, farnesylpyrophosphate], the “RhoB GTP-binding activity” value (RhoB [8]) was 2.7 ± 0.5 fmol/mg/min and the “observable adverse effects on cellular morphology / viability” value (human endothelial cells) was “no observable adverse effects”.
